Measured values reported in PMC5619856, “One enzyme, many reactions: structural basis for the various reactions catalyzed by naphthalene 1,2-dioxygenase” (IUCrJ, 2017).

Molecular target: T1, naphthalene 1,2-dioxygenase (NDO) (Pseudomonas putida, UniProt P0A110)
T1 construct: gene ndoB; wild-type terminal oxygenase component, plasmid pDTG121 in E. coli DE3 Star, no tag mentioned; alpha3beta3 hexamer with Rieske [2Fe-2S] and mononuclear iron; with Naphthalene 1,2-dioxygenase system, small oxygenase component
T1 sequence (P0A110 1-449): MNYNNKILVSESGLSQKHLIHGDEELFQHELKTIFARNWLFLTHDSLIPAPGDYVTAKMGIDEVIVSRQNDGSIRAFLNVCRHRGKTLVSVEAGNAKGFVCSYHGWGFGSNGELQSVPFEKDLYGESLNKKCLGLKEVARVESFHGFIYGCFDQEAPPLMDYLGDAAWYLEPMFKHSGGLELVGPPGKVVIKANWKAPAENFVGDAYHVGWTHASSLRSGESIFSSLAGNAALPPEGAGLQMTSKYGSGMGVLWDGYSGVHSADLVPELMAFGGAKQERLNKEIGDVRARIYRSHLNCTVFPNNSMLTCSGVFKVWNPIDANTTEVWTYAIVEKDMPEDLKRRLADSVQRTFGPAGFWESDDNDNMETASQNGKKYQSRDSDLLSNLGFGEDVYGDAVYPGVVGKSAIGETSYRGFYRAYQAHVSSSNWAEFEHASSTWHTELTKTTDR
T1 sequence (P0A112 1-194 partner): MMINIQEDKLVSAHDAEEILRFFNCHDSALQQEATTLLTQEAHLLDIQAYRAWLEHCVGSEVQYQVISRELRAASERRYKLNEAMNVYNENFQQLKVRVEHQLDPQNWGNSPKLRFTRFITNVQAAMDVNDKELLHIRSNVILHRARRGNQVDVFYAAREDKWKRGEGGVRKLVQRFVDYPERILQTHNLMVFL
Experiment: X-ray crystal structure (soaked crystal)
Type: binding
Details: active site, multiple orientations; crystals pH 5.0-5.8; soaked at least two weeks

| Structure (SMILES) | X-ray crystal structure (soaked crystal) |
| --- | --- |
| CCOc1ccccc1 [phenetole] | structures of phenetole, thioanisole and ethylphenylsulfide in complex with NDO were solved |
| CSc1ccccc1 [thioanisole] | structures of phenetole, thioanisole and ethylphenylsulfide in complex with NDO were solved |
| CCSc1ccccc1 [ethylphenylsulfide] | structures of phenetole, thioanisole and ethylphenylsulfide in complex with NDO were solved |
